Test system: durch CCl4 induzierte Leberfibrose in Ratten
Experiment: Effect of prolyl hydroxylase inhibitors on CCl4-induced liver fibrosis in rats: serum bilirubin, bile acids, gamma GT
Assay type: in vivo
Conditions: rat serum, 20 mg/kg total daily oral dose; for Bile acids / Bilirubin / Gamma GT: CCl4 then compound, mean ± standard deviation; for Bile acids: prozentuale Verbesserung gegenüber einer ausschließlichen CCl4-Behandlung / Bilirubin: prozentuale Verbesserung gegenüber einer ausschließlichen CCl4-Behandlung / Gamma GT: prozentuale Verbesserung gegenüber einer ausschließlichen CCl4-Behandlung: value in brackets
Excerpt: Um die effiziente Inhibitierung der Prolin-hydroxylase und der Lysin-hydroxylase durch die Verbindungen gemäß der Erfindung zu zeigen, werden die Konzentrationen von Bilirubin, Bile-Säuren und Gamma GT im Serum von • a) unbehandelten Ratten (Kontrolle), • b) mit CCl₄ behandelten Ratten, • c) Ratten, denen zuerst CCl₄ und anschließend eine Verbindung gemäß der Erfindung gegeben wurden, gemessen. (Die Methode ist beschrieben von Rouiller, C., Experimental toxic injury of the liver; in The Liver, C. Rouiller, Vol. 2, Seiten 335-476, New York, Academic Press 1964).
Die Ergebnisse sind in Tabelle 1 zusammengefaßt.

SMILES | Bile acids | Bilirubin | Gamma GT | Bile acids: prozentuale Verbesserung gegenüber einer ausschließlichen CCl4-Behandlung [%] | Bilirubin: prozentuale Verbesserung gegenüber einer ausschließlichen CCl4-Behandlung [%] | Gamma GT: prozentuale Verbesserung gegenüber einer ausschließlichen CCl4-Behandlung [%]
COCCNC(=O)c1cc[n+]([O-])c(C(=O)NCCOC)c1 [Beispiel 1, Pyridin-2,4-dicarbonsäure-di-N,N'-(2-methoxyethyl)amid-N-oxid] | 97 ± 76 | 6,30 ± 5,4 µm | 4,3 ± 3,1 U/L | 0 | 0 | 27
COCCCNC(=O)c1cc[n+]([O-])c(C(=O)NCCCOC)c1 [Beispiel 2, Pyridin-2,4-dicarbonsäure-di-N,N'-(3-methoxypropyl)amid-N-oxid] | 71 ± 42 | 2,90 ± 0,94 µm | 3,3 ± 2,2 U/L | 18 | 65 | 59

— patent publication EP0463592A1, “2,4- and 2,5-substituted pyridine-N-oxides, processes for their preparation and for their utilization” (HOECHST AKTIENGESELLSCHAFT, priority 1990, dated 1992)
